Experimental data: PMC5902495, “Synthesis of Symmetrical Tetrameric Conjugates of the Radiolanthanide Chelator DOTPI for Application in Endoradiotherapy by Means of Click Chemistry” (Frontiers in Chemistry, 2018)

Experiments:
[1] = Stability and protonation constants of Ca^II complexes (pH-potentiometry); format: physicochemical; conditions: 25°C, 0.15 M NaCl
Source text: (§1) For determining the protonation constants of DOTPI(Chx)4 and DOTPI three parallel pH-potentiometric titration were made with 0.2 M NaOH in 0.002 M ligand solutions. The stability and protonation constants of the Ca^II and Zn^II complexes formed with DOTPI(Chx)4 and DOTPI ligands have been determined by direct pH-potentiometric titration made at 1:1 and 2:1 metal to ligand concentration ratios. (the concentration of ligands was 0.002 M). For the calculation of the logKML and logKMLHi values, the mL base—pH data used were obtained in the pH range 1.7–12.0.
(§2) For pH measurements and titrations, a Metrohm 785 DMP Titrino titration workstation and a Metrohm-6.0233.100 combined electrode were used. Equilibrium measurements were carried out at a constant ionic strength (0.15 M NaCl) in 6 mL samples at 25°C. The solutions were stirred, and constantly purged with N2. The titrations were performed in a pH range of 1.7–11.7. KH-phthalate (pH = 4.005) and borax (pH = 9.177) buffers were used to calibrate the pH meter. For calculation of [H^+] from measured pH values, the method proposed by Irving et al. was used (Irving et al., [1967]). A 0.01 M HCl solution was titrated with the standardized NaOH solution in the presence of 0.1 M NaCl. Differences between the measured (pHread) and calculated pH (–log[H^+]) values were used to obtain the equilibrium H^+ concentration from the pH values, measured in the titration experiments. For the equilibrium calculations, the stoichiometric water ionic product (pKw) is also needed to calculate [H^+] values in basic conditions. The VNaOH – pHread data pairs of the HCl – NaOH titration obtained in the pH range 10.5–12 have been used to calculate the pKw value (pKw = 13.85). For the calculation of the equilibrium constants the program PSEQUAD (Zekany and Nagypal, [1985]) was used.
(§3) 2. Protonation and complexation equilibria of DOTPI and
(§4) The protonation processes of the DOTPI and DOTPI(Chx)4, ligands have been studied by pH-potentiometry. The protonation constants (logKiH) of ligands are defined according to Eq. (1).
(§5) The stability and protonation constants of DOTPI and DOTPI(Chx)4 complexes with several metal ions were determined by pH-potentiometric and UV/Vis spectrophotometric, methods.
(§6) The stability and protonation constants of the metal complexes formed with the DOTPI and DOTPI(Chx)4, ligands, defined by Eqs. […]
where i = 1, 2, 3…5. The KML and KMHiL values characterizing the formation of DOTPI and DOTPI(Chx)4 complexes of CaII and ZnII have been calculated from the pH-potentiometric titration data obtained at 1:1 metal to ligand concentration ratios. The protonation constants of the complexes Cu(DOTPI) and Cu(DOTPI( Chx)4) were also determined by pH-potentiometric titrations, made at 1:1 metal to ligand concentration ratio. […]

[2] = Stability and protonation constants of Zn^II complexes (pH-potentiometry); format: physicochemical; conditions: 25°C, 0.15 M NaCl
Source text: as §1, §2, §3, §4, §5, §6
where i = 1, 2, 3…5. The KML and KMHiL values characterizing the formation of DOTPI and DOTPI(Chx)4 complexes of CaII and ZnII have been calculated from the pH-potentiometric titration data obtained at 1:1 metal to ligand concentration ratios. The protonation constants of the complexes Cu(DOTPI) and Cu(DOTPI( Chx)4) were also determined by pH-potentiometric titrations, made at 1:1 metal to ligand concentration ratio. The pH-potentiometric titrations of DOTPI ligand were also performed at 2:1 metal-to-ligand ratio in order to examine the possible formation of dinuclear CaII-, ZnII-, and CuII-DOTPI complexes.
The stability and protonation constants of the dinuclear complexes formed with the DOTPI […]
where i=1 and 2. In calculating the equilibrium constants, the best fit of the mL base – pH data was obtained by assuming the formation of ML, MHL, MH 2L, MH3L, MH4L, MH5L, M2L, M2LH, and M2LH2 complexes with DOTPI and DOTPI(Chx)4.
(also on this page, place not known: ]H][LH[ ]LH[K 1i iH + − = DOTPI( Chx)4 f ormed ]L][M[ ]ML[K ML = ]H][LMH[ ]LMH[K 1i i LMHi + − = i 3 …5. Ca II Zn II -potentiometric pH - metal -to-ligand Cu II-DOTPI ]M][ML[ ]LM[K 2 LM2 = ]H][LHM[ ]LHM[K 1i2 i2 LHM i2 + − = pH MH 4L,) […]

[3] = 25°C, I = 0.1 M Me4NCl; ref Lázár et al., [1991]; cited from earlier work
[4] = 25°C, I = 0.1 M Me4NCl; ref Lázár et al., [1991]; cited from earlier work; remark: listed apart in the source

protonation constant CaH2L [1]: 5.04 (9)
protonation constant CaHL [1]: 6.49 (4)
stability constant of dinuclear complex Ca2L [1]: 2.85 (5)
protonation constant Zn2LH [2]: 5.02 (5)
protonation constant Zn2LH2 [2]: 4.87 (4)
protonation constant ZnH2L [2]: 5.15 (3)
protonation constant ZnH3L [2]: 4.40 (4)
protonation constant ZnH4L [2]: 4.42 (1)
protonation constant ZnHL [2]: 5.65 (3)
stability constant of dinuclear complex Zn2L [2]: 3.78 (4)
SMILES: O=C(O)CCP(=O)(O)CN1CCN(CP(=O)(O)CCC(=O)O)CCN(CP(=O)(O)CCC(=O)O)CCN(CP(=O)(O)CCC(=O)O)CC1 [DOTPI, 1,4,7,10-tetraazacyclododecane-1,4,7,10-tetrakis[methylene(2-carboxyethylphosphinic acid)]]
logKML, CaL [3]: 12.48
logKML, ZnL [4]: 18.57
